These results are taken from the supplement of paper PMC10307832.

Experiment in all cases: relative viability (nuclei count vs DMSO), 5 days (fraction); higher = more cells survive
Compound in assay [1]: COc1cc2ncn(-c3cc(OCc4ccccc4C(F)(F)F)c(C(N)=O)s3)c2cc1OC + COc1cccc2cc(-c3nc([C@H]4CC[C@H](C(=O)O)CC4)n4ncnc(N)c34)[nH]c12 [OSI-027] (partner 0.5 µM)
In outline: (§1)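 Relative viability divides the nuclei count in treated wells by that in vehicle wells. Lung cancer cell lines were seeded in 1536-well plates, dosed by pin tool the next day, and fixed and stained after 5 days in one step with final 0.05% Triton X-100, 1% formaldehyde and 1 ug/ml Hoechst. Dosing was a single drug or a fixed anchor-drug dose plus five library-drug doses (not always all listed) in √10 steps, and values are medians of duplicate plates imaged at 4×.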

Compound in assay [2]: COc1cc2ncn(-c3cc(OCc4ccccc4C(F)(F)F)c(C(N)=O)s3)c2cc1OC + CC(=O)Nc1cccc(-n2c(=O)n(C3CC3)c(=O)c3c(Nc4ccc(I)cc4F)n(C)c(=O)c(C)c32)c1 [Trametinib] (partner 0.02 µM)
In outline:
as §1

Compound in assay [3]: COc1cc2ncn(-c3cc(OCc4ccccc4C(F)(F)F)c(C(N)=O)s3)c2cc1OC + C[C@]1(O)C[C@@H](c2nc(-c3ccc4ccc(-c5ccccc5)nc4c3)c3c(N)nccn32)C1 [Linsitinib] (partner 1 µM)
The method, boiled down:
as §1

Compound in assay [4]: COc1cc2ncn(-c3cc(OCc4ccccc4C(F)(F)F)c(C(N)=O)s3)c2cc1OC + CS(=O)(=O)CCNCc1ccc(-c2ccc3ncnc(Nc4ccc(OCc5cccc(F)c5)c(Cl)c4)c3c2)o1 [Lapatinib] (partner 2 µM)
In outline:
as §1

Regarding HCC-15, the relative viability was 0.713 in assay [1] (first compound 0.05 µM); 0.635 in assay [1] (first compound 0.1581 µM); 0.269 in assay [1] (first compound 0.5 µM); 0.127 in assay [1] (first compound 1.581 µM); 0.104 in assay [1] (first compound 5 µM); 0.227 in assay [2] (first compound 0.05 µM). The relative viability was determined as 0.378 in assay [2] (first compound 0.1581 µM); 0.259 in assay [2] (first compound 0.5 µM); 0.112 in assay [2] (first compound 1.581 µM); 0.0946 in assay [2] (first compound 5 µM); 0.865 in assay [3] (first compound 0.05 µM); 0.828 in assay [3] (first compound 0.1581 µM). In addition, the relative viability in assay [3] (first compound 0.5 µM) came to 0.557; in assay [3] (first compound 1.581 µM) it was 0.14; in assay [3] (first compound 5 µM), 0.13; in assay [4] (first compound 0.05 µM), 0.861; in assay [4] (first compound 0.1581 µM) it was 0.731; in assay [4] (first compound 0.5 µM) it was 0.602. For the same cell line, the relative viability in assay [4] (first compound 1.581 µM) is 0.135; in assay [4] (first compound 5 µM), 0.114.
HCC-44: the relative viability in assay [1] (first compound 0.05 µM) is 0.626; in assay [1] (first compound 0.1581 µM), 0.484; in assay [1] (first compound 0.5 µM) it was 0.216; in assay [1] (first compound 1.581 µM) it was 0.187; in assay [1] (first compound 5 µM), 0.161; in assay [2] (first compound 0.05 µM) it was 0.977. In addition, the relative viability in assay [2] (first compound 0.1581 µM) came out at 0.935; in assay [2] (first compound 0.5 µM) it was 0.874; in assay [2] (first compound 1.581 µM), 0.387; in assay [2] (first compound 5 µM), 0.225; in assay [3] (first compound 0.05 µM), 0.773; in assay [3] (first compound 0.1581 µM) it was 0.621. For the same cell line, the relative viability in assay [3] (first compound 0.5 µM) amounted to 0.55; in assay [3] (first compound 1.581 µM) it was 0.141; in assay [3] (first compound 5 µM) it was 0.109; in assay [4] (first compound 0.05 µM) it was 1.06; in assay [4] (first compound 0.1581 µM) it was 0.976; in assay [4] (first compound 0.5 µM), 0.987. The relative viability in assay [4] (first compound 1.581 µM) was found to be 0.0934; in assay [4] (first compound 5 µM), 0.171.
As to HCC-78, the relative viability in assay [1] (first compound 0.05 µM) was determined as 0.444; in assay [1] (first compound 0.1581 µM) it was 0.414; in assay [1] (first compound 0.5 µM), 0.343; in assay [1] (first compound 1.581 µM) it was 0.288; in assay [1] (first compound 5 µM) it was 0.244; in assay [2] (first compound 0.05 µM) it was 0.949. Moreover, the relative viability worked out at 0.54 in assay [2] (first compound 0.1581 µM); 0.544 in assay [2] (first compound 0.5 µM); 0.642 in assay [2] (first compound 1.581 µM); 0.682 in assay [2] (first compound 5 µM); 0.537 in assay [3] (first compound 0.05 µM); 0.597 in assay [3] (first compound 0.1581 µM). Further, the relative viability is 0.368 in assay [3] (first compound 0.5 µM); 0.315 in assay [3] (first compound 1.581 µM); 0.394 in assay [3] (first compound 5 µM); 0.75 in assay [4] (first compound 0.05 µM); 0.429 in assay [4] (first compound 0.1581 µM); 0.542 in assay [4] (first compound 0.5 µM). The relative viability was 0.566 in assay [4] (first compound 1.581 µM) and 0.804 in assay [4] (first compound 5 µM).
Regarding HCC-366, the relative viability was determined as 1.1 in assay [1] (first compound 0.05 µM); 0.814 in assay [1] (first compound 0.1581 µM); 0.182 in assay [1] (first compound 0.5 µM); 0.0338 in assay [1] (first compound 1.581 µM); 0.0229 in assay [1] (first compound 5 µM); 0.114 in assay [2] (first compound 0.05 µM). Further, the relative viability was 0.35 in assay [2] (first compound 0.1581 µM); 0.12 in assay [2] (first compound 0.5 µM); 0.0256 in assay [2] (first compound 1.581 µM); 0.0157 in assay [2] (first compound 5 µM); 0.837 in assay [3] (first compound 0.05 µM); 0.635 in assay [3] (first compound 0.1581 µM). In addition, the relative viability in assay [3] (first compound 0.5 µM) came out at 0.114; in assay [3] (first compound 1.581 µM), 0.0118; in assay [3] (first compound 5 µM), 0.0055; in assay [4] (first compound 0.05 µM), 1.11; in assay [4] (first compound 0.1581 µM), 1.02; in assay [4] (first compound 0.5 µM), 0.359. Also, the relative viability in assay [4] (first compound 1.581 µM) is 0.0141; in assay [4] (first compound 5 µM) it was 0.0131.
With HCC-827, the relative viability in assay [1] (first compound 0.05 µM) came to 0.794; in assay [1] (first compound 0.1581 µM), 0.9; in assay [1] (first compound 0.5 µM), 0.564; in assay [1] (first compound 1.581 µM) it was 0.228; in assay [1] (first compound 5 µM), 0.14; in assay [2] (first compound 0.05 µM) it was 0.479. In addition, the relative viability in assay [2] (first compound 0.1581 µM) is 0.421; in assay [2] (first compound 0.5 µM), 0.473; in assay [2] (first compound 1.581 µM), 0.428; in assay [2] (first compound 5 µM), 0.453; in assay [3] (first compound 0.05 µM), 0.968; in assay [3] (first compound 0.1581 µM) it was 0.924. The relative viability in assay [3] (first compound 0.5 µM) worked out at 0.798; in assay [3] (first compound 1.581 µM) it was 0.401; in assay [3] (first compound 5 µM) it was 0.27; in assay [4] (first compound 0.05 µM), 0.165; in assay [4] (first compound 0.1581 µM), 0.23; in assay [4] (first compound 0.5 µM), 0.207. In addition, the results for the relative viability in assay [4] (first compound 1.581 µM) and in assay [4] (first compound 5 µM) were 0.13 and 0.206, respectively.
Take HOP-62: the relative viability in assay [1] (first compound 0.05 µM) came to 0.846; in assay [1] (first compound 0.1581 µM), 0.888; in assay [1] (first compound 0.5 µM), 0.537; in assay [1] (first compound 1.581 µM), 0.226; in assay [1] (first compound 5 µM), 0.144; in assay [2] (first compound 0.05 µM), 0.35. Besides, the relative viability was 0.284 in assay [2] (first compound 0.1581 µM); 0.348 in assay [2] (first compound 0.5 µM); 0.163 in assay [2] (first compound 1.581 µM); 0.136 in assay [2] (first compound 5 µM); 0.95 in assay [3] (first compound 0.05 µM); 0.966 in assay [3] (first compound 0.1581 µM). The relative viability worked out at 0.547 in assay [3] (first compound 0.5 µM); 0.116 in assay [3] (first compound 1.581 µM); 0.0914 in assay [3] (first compound 5 µM); 1.01 in assay [4] (first compound 0.05 µM); 1.08 in assay [4] (first compound 0.1581 µM); 0.829 in assay [4] (first compound 0.5 µM). Further, the relative viability came out at 0.233 in assay [4] (first compound 1.581 µM) and 0.121 in assay [4] (first compound 5 µM).
Consider IA-LM, for which the relative viability in assay [3] (first compound 0.05 µM) amounted to 0.58; in assay [3] (first compound 0.1581 µM) it was 0.606; in assay [3] (first compound 0.5 µM), 0.172; in assay [3] (first compound 1.581 µM), 0.0675; in assay [3] (first compound 5 µM), 0.0619; in assay [4] (first compound 0.05 µM) it was 0.617. Besides, the relative viability turned out to be 0.49 in assay [4] (first compound 0.1581 µM), 0.0998 in assay [4] (first compound 0.5 µM), 0.083 in assay [4] (first compound 1.581 µM) and 0.0955 in assay [4] (first compound 5 µM).
